Assay results published in US5814612A, “Retinol derivatives and uses thereof” (priority 1992, dated 1998).
“Also recorded” adds a separate entry of the source. Where two headings read alike, the source gives them in different places. Values belong to the molecule of their own block, whether it stands above or below them.

Assays:
B lymphocytes = experiment: Activity in B lymphocytes; assay type: cell-based
[1] = Reversion of 14HRR to retinal; assay type: in vitro ADME
5/2 cells = assay type: in vitro ADME, human
Procedure: 5/2 cells (10^6 cells in 10 ml HB 101 medium) were incubated with all-trans-[^3 H] retinol (10 uCe/ml). After 24 hours, retinoids were extracted from the washed cell pellet and unlabeled marker retinoids were added. The crude extract was loaded on an analytical reversed-phase C-18 column. Retinoids were eluted with the shown linear gradient of water/methanol/chloroform. The flow rate was 0.5 ml/min. DPM were determined with an on line scintillation counter. Reference retinoids were the all-trans forms of 0: 3,4-didehydroretinoic acid, 1: all-trans-retinoic acid, 2: 3,4-didehydroretinol, 3: retinol, 4: retinyl linoleate, 5: retinyl oleate, 6: retinyl palmitate. Shaded area corresponds to P3. Cross-hatched area corresponds to P1.
Lymphoblastoid 5/2 cells grown in the presence of 10^-6 M retinol were spiked with ^3 H-labeled retinol. After 16 hours the cell pellet was delipidated according to the method of McLean et al. and separated on a reversed phase C-18 HPLC column (FIG. 7). […] Three peaks, P1, P2 and P3, could not be immediately identified. One peak eluting at 36-39 minutes (corresponding 83% methanol 7% water) provisionally called P3, but now known as 14HRR, was unusual because unlike P1 eluting at 31-34 minutes, its relative amount increased when the retinol concentration was lowered or when retinol was given to the cells bound to RBP. […] Since HeLa cells contain 14HRR, these cells were also used. 50 ml of packed HeLa cells (10^10 cells) yielded 25 OD348nmunits of pure P3 after the following sequence of steps: 1. Growth in the presence of 10^-5 M retinol; 2. Extraction of cell pellet according to McClean et al. (13); 3. Preparative C-18 HPLC column eluted with a water/methanol gradient; 4. semipreparative C18 HPLC column eluted with a water/acetonitrile gradient; 5. analytical C4 column eluted with a water/methanol gradient.

[2] = cited from earlier work
P388D.1 = experiment: Retinol metabolism, P388D.1; assay type: in vitro ADME, mouse
Procedure: (§1) Legend: 2.5×10^6 cells were grown overnight in 5 ml RPMI/10% FBS. The FBS was preincubated at room temperature with 14.4 uCi [^3 H] retinol (NEN) for 4h. The cell pellet was washed twice with PBS. The retinoid were extracted according to MClean et al. 90 and separated on an analytical c18 reverse phase column according to FIG. 7. The DPM were determined using an on-line scintillation counter.

SLA = experiment: Retinol metabolism, SLA; assay type: in vitro ADME, mouse
Procedure: as §1

26 mammalian cells = experiment: 3H retinol conversion to P3/14HRR in 26 mammalian cells; assay type: in vitro ADME; conditions: retinol bound to fetal calf serum
Procedure: The use of ^3 H retinol bound to fetal calf serum was used as an assay to test for P3 in other cell lines.
The use of ^3 H retinol bound to fetal calf serum was used as an assay to test for 14HRR in other cell lines.
as §1

5/2 = experiment: Retinol metabolism, 5/2; assay type: in vitro ADME, human
Procedure: as §1

reversion to retinal [1]: does not revert to retinal
SMILES: CC(C=CC=C(C)C(O)CO)=CC=C1C(C)=CCCC1(C)C (stereo not shown) [14HRR, 14-hydroxy-4,14-retro-retinol]
activity relative to all-trans retinol on a concentration basis (B lymphocytes; B cells): 10-30 fold | potency relative to retinol in preventing necrotic cell death (B lymphocytes; concentration basis): 20-40 times

SMILES: CC1=C(/C=C/C(C)=C/C=C/C(C)=C/C(=O)O)C(C)(C)CCC1 [all-trans retinoic acid]
detection as metabolite of retinol (5/2 cells): not detectable

Ester (% of taken up retinol) (P388D.1): 26% | P3 (% of taken up retinol) (P388D.1): 0.5% | Total cts. (P388D.1): 1.4 × 10^5 cts. | Ester (% of taken up retinol) (SLA): 9% | P3 (% of taken up retinol) (SLA): 3% | Total cts. (SLA): 6.1 × 10^5 cts. | Ester (% of taken up retinol) (5/2): 24% | P3 (% of taken up retinol) (5/2): 4% | Total cts. (5/2): 5.7 × 10^5 cts.
SMILES: CC1=C(/C=C/C(C)=C/C=C/C(C)=C/CO)C(C)(C)CCC1 [retinol, all-trans retinol]
half-life ([2]; serum-free cell culture (ref. 32)): < 24 h | half-life ([2]; serum-free tissue culture medium, estimated (ref. 32)): ~24 h | formation of P3/14HRR from 3H retinol (26 mammalian cells): radioactivity peak at the position where 14HRR normally elutes; also recorded: radioactivity peak at the position where P3 normally elutes
